From patent US20250170116A1, “PHARMACEUTICAL COMPOSITION FOR PREVENTING AND/OR TREATING RENAL DISEASE” (priority 2022, published 2025)

Tests used:
[1] = tested on: rats with puromycin aminonucleoside-induced kidney injury (focal segmental glomerulosclerosis / minimal change nephrotic syndrome model rats); assay: Test Example 1: action of Compound 011 in rats with puromycin aminonucleoside-induced kidney injury; format: in vivo, S.D. rats; details: for urinary protein levels lower compared with PAN group: Bradford method
Protocol: Eight-week-old S.D. rats (male, 8 rats) were intraperitoneally injected with 120 mg/kg of puromycin aminonucleoside (PAN) under anesthesia (day 0). PAN damages glomerular basement membrane cells (podocytes) and induces glomerular injury in rats. The PAN-treated rats were focal segmental glomerulosclerosis model rats and minimal change nephrotic syndrome model rats. The test compound (Compound 011) was mixed with food and administered (10 mg/kg/day) on or after the third day after the PAN injection. The rats were kept under a 12-hour light-dark cycle (lights on from 7:00 am to 7:00 pm, and lights off from 7:00 pm to 7:00 am the next morning), and food and water were provided ad libitum (PAN+011 group). Urine was collected on day 0, i.e., the day of PAN administration, and on days 3, 10, 20, and 27 after PAN administration. Urine was collected by placing the rats in metabolic cages for 17 hours (5:00 pm to 10:00 am the next morning). Separately, as controls, a group without PAN treatment and without test compound administration (control group, male, 3 animals), a group without PAN treatment but with test compound administration (control+011 group, male, 5 animals), and a group with PAN treatment but without test compound administration (PAN group, male, 9 animals) were also tested in the same manner. The urinary protein levels were measured by using the Bradford method. The serum albumin levels were measured by using an improved BCP (bromocresol purple) method. In the PAN group, the number of serum samples was 8 because one animal from which a serum sample was unable to be collected was excluded. On day 27 after PAN administration, the left kidney of each rat was removed, the size was visually observed, and the weight was measured. The number of left kidney samples of the control group was 3 because the left kidneys of three animals in this group were all removed and weighed. The number of left kidney samples of the control+011 group was 4 because the left kidneys of 4 of the 5 animals in this group were removed and weighed. The number of left kidney samples of the PAN group was 7 because the left kidneys of 7 of the 9 animals in this group were removed and weighed. The number of left kidney samples of the PAN+011 group was 7 because the left kidneys of 7 of the 8 animals in this group were removed and weighed.

[2] = tested on: rats with puromycin aminonucleoside-induced kidney injury (focal segmental glomerulosclerosis model rats); assay: Test Example 3: action of Compound 011 in PAN-treated rats with more severe symptoms for a longer period; format: in vivo, S.D. rats
Protocol: The action of Compound 011 on PAN-treated rats with more severe symptoms for a longer period of time than in Test Example 1 was studied. Eight-week-old S.D. rats (male, 8 rats) were intraperitoneally injected with 120 mg/kg of puromycin aminonucleoside (PAN) under anesthesia. Then, one month later, PAN was again injected intraperitoneally at 60 mg/kg. PAN creates focal segmental glomerulosclerosis model rats by disrupting glomerular basement membrane cells (podocytes) (Kim, J Mol Med, 2018, 96, 631-644). Furthermore, these model rats are known to develop chronic kidney damage accompanied by lymphocyte and macrophage infiltration (Ornellas, Sci Rep, 2019, 9:19604). The test compound (Compound 011) was mixed with food and administered (10 mg/kg/day) on or after the third day after the PAN injection. The rats were kept under a 12-hour light-dark cycle (lights on from 7:00 am to 7:00 pm, and lights off from 7:00 pm to 7:00 am the next morning), and food and water were provided ad libitum (PAN+011 group). Chronic proteinuria may sometimes occur after the first administration of PAN without a second administration of PAN. […] Two months after the first administration of PAN, the kidneys of the rats were removed, their sizes were visually observed, and their weights were measured. The number of kidney samples was 4 for the PAN group and was 6 for the PAN+011 group. Subsequently, the kidneys were fixed with 4% paraformaldehyde/PBS and then paraffin-embedded, and sections were prepared. The sections were treated with PAS (periodic acid-Schiff) staining, and PAS-stained positive areas (inflammatory cell areas) were evaluated. To extract RNA, a portion of tissue around the surface layer of the kidney was quickly frozen to −80° C. cDNA was produced from RNA extracted from the tissue by reverse transcriptase, and gene expression was evaluated by real-time PCR. TB Green Premix Ex Taq II (Takara Bio Inc.) was used as a reagent for the reaction, and a QuantStudio 5 system (Thermo Fisher) was used for the analysis.

[3] = PAN+011 group vs PAN group, two months after PAN
[4] = PAN+011 group, after 2 months, 10 mg/kg/day mixed with food, *p<0.03

In the case of O=C(O)c1cnc(N2CCN(c3noc4cccc(C(F)(F)F)c34)CC2)c(Cl)c1 [Compound 011, 5-Chloro-6-(4-(4-(trifluoromethyl)benzo[d]isoxazol-3-yl)piperazin-1-yl)nicotinic acid], the “urinary protein levels lower compared with PAN group” value ([1]; PAN+011 group vs PAN group, day 10 after PAN, 10 mg/kg/day mixed with food) is reported as 38%, the serum albumin levels ([1]; PAN+011 group vs PAN group, day 27, improved BCP method, **p<0.01) is reported as “almost no PAN-treatment-induced decrease in serum albumin levels” and the “left kidney weight per rat body weight” value ([1]; PAN+011 group vs PAN group, day 27 after PAN) is reported as “smaller increase in kidney weights”. The “urinary protein levels lower compared with PAN group” value ([1]; PAN+011 group vs PAN group, day 27 after PAN, 10 mg/kg/day mixed with food) was 48%, the “urinary protein levels, control+011 group vs control group” value ([1]; rats without PAN treatment, 10 mg/kg/day mixed with food) was “No difference” and the “CD4 expression level in kidney tissue (quantitative PCR, relative to GAPDH)” value [2, 3] was “significantly decreased”. The “CD86 expression level in kidney tissue (quantitative PCR, relative to GAPDH)” value [2, 3] was “significantly decreased”, the “TGF-β expression level in kidney tissue (quantitative PCR, relative to GAPDH)” value [2, 3] was “significantly decreased” and the “left kidney weight per rat body weight, decrease compared with PAN group” value [2, 4] was 29%. The “right kidney weight, decrease compared with PAN group” value [2, 4] was 28% and the “suppression of formation of tertiary lymphoid tissue-like structures (PAS-stained positive area)” value ([2]; kidney sections two months after PAN, on average) was ≥ 50%.
